Laboratory results: patent US5998405A, “Fused tropane-derivatives as neurotransmitter reuptake inhibitors” (NeuroSearch A/S, priority 1996, dated 1999)
Where a name gives a salt, the structure may show the parent alone.

Experiments:
Assay type in all cases: biochemical, Wistar rat
[1] = biological target: T1, ^3 H-dopamine uptake in striatal synaptosomes (Rattus norvegicus, UniProt P23977); assay: In vitro inhibition of 3H-dopamine (3H-DA) uptake in striatal synaptosomes; conditions: 3H-DA 1 nM, 25 min at 37° C.
T1 construct: Corpi striati from male Wistar rats (150-200 g) are homogenized; from tissue; host or cells: striatum (corpus striatum) of male Wistar rats, P2 synaptosomal pellet
T1 sequence (P23977 whole entry): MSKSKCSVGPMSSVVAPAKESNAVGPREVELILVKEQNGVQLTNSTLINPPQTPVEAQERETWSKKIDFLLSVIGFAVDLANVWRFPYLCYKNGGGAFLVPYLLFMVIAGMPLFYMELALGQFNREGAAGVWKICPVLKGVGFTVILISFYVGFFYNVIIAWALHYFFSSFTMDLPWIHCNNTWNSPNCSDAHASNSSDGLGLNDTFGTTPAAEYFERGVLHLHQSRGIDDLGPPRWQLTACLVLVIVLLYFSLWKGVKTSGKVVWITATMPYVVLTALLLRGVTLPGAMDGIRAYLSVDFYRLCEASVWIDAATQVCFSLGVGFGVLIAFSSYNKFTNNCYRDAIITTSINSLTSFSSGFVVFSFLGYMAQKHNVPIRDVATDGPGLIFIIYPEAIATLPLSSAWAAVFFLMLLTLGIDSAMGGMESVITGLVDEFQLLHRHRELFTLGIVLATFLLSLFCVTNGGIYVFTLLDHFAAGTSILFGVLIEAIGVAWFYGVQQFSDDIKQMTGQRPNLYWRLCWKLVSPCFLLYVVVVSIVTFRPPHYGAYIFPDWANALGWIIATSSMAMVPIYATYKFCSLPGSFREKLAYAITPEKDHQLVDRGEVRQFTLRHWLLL
Source text: (§1) The compounds of the invention have been tested for their ability to inhibit reuptake of dopamine(DA) noradrenaline(NA) and serotonine(5-HT) in synaptosomes.
(§2) Specific neurotransmitter transporters/uptake sites on nerve terminals presumably function to terminate neuronal signaling by removing the neurotransmitters dopamine, noradrenaline and serotonine, respectively, from the synaptic cleft. The activity of the transporter integral proteins can be measured in vitro by synaptosomal uptake of ^3 H-dopamine, ^3 H-noradrenaline and ^3 H-serotonine, respectively.
In Vitro Inhibition of ^3 H-dopamine (^3 H-DA) Uptake in Striatal Synaptosomes
(§3) Tissue preparations: Preparations are performed at 0-4° C. unless otherwise indicated. Corpi striati from male Wistar rats (150-200 g) are homogenized for 5-10 sec in 100 volumes of ice-cold 0.32M sucrose containing 1 mM pargyline using an Ultra-Turrax homogenizer. Monoamine oxidase activity will be inhibited in the presence of pargyline. The homogenate is centrifuged at 1000×g for 10 min. The resulting supernatant is then centrifuged at 27,000×g for 50 min and the supernatant is discarded. The pellet (P2) is resuspended in oxygenated (equilibrated with an atmosphere of 96% O2 : 4% CO2 for at least 30 min) Krebs-Ringer incubation buffer (8000 ml per g of original tissue) at pH 7.2 containing 122 mM NaCl, 0.16 mM EDTA, 4.8 mM KCl, 12.7 mM Na2 HPO4, 3.0 mM NaH2 PO4, 1.2 mM MgSO4, 1 mM CaCl2, 10 mM glucose and 1 mM ascorbic acid.
(§4) Assay: Aliquots of 4.0 ml tissue suspension are added to 100 μl of test solution and 100 μl of ^3 H-DA (1 nM, final concentration), mixed and incubated for 25 min at 37° C. Non-specific uptake is determined using benztropine (10 μM, final concentration). After incubation the samples are poured directly onto Whatman GF/C glass fibre filters under suction. The filters are then washed three times with 5 ml of ice-cold 0.9% (w/v) NaCl solution. The amount of radioactivity on the filters is determined by conventional liquid scintillation counting. Specific uptake is calculated as the difference between total uptake and non-specific uptake.
The test value is given as IC50 (the concentration (μM) of the test substance which inhibits the specific binding of ^3 H-DA by 50%).

[2] = biological target: T2, ^3 H-5-hydroxytryptamine (serotonin) uptake in cortical synaptosomes (Rattus norvegicus, UniProt P31652); assay: In vitro inhibition of 3H-5-hydroxytryptamine (3H-5-HT, serotonin) uptake in cortical synaptosomes; conditions: 3H-5-HT 1 nM, 30 min at 37° C.
T2 construct: Cerebral cortices from male Wistar rats (150-200 g) are homogenized; from tissue; host or cells: cerebral cortex of male Wistar rats, P2 synaptosomal pellet
T2 sequence (P31652 whole entry): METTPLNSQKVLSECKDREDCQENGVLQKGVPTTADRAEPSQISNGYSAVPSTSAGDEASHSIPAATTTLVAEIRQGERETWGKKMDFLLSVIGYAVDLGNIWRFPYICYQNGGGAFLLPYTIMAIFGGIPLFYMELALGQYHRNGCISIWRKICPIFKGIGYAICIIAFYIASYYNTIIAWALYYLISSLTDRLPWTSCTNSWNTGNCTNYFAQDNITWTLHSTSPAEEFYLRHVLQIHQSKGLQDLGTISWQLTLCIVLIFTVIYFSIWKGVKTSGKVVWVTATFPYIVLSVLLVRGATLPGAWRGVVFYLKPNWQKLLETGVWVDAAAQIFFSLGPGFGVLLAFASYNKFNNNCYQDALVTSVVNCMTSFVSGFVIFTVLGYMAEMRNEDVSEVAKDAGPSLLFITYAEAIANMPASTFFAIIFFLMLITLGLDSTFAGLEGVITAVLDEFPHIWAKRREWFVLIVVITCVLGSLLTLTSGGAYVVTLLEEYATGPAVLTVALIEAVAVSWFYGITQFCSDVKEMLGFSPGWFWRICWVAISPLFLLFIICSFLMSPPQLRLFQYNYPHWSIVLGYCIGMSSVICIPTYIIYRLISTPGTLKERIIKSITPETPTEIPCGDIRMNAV
Source text: as §1, §2
In Vitro Inhibition of ^3 H-5-hydroxytryptamine (^3 H-5-HT, Serotonin) Uptake in Cortical Synaptosomes
as §3, with “preparation:” for “preparations:”, “Cerebral cortices” for “Corpi striati”, “(1000” for “(8000”
as §4, with “H-5-HT” for “H-DA”, “30” for “25”, “citalopram (1” for “benztropine (10”
The test value is given as IC50 (the concentration (μM) of the test substance which inhibits the specific binding of ^3 H-5-HT by 50%).

[3] = biological target: T3, ^3 H-noradrenaline uptake in hippocampal synaptosomes (Rattus norvegicus, UniProt Q63380); assay: In vitro inhibition of 3H-noradrenaline (3H-NA) uptake in hippocampal synaptosomes; conditions: 3H-NA 1 nM, 90 min at 37° C.
T3 construct: Hippocampi from male Wistar rats (150-200 g) are homogenized; from tissue; host or cells: hippocampus of male Wistar rats, P2 synaptosomal pellet
T3 sequence (Q63380 1-617): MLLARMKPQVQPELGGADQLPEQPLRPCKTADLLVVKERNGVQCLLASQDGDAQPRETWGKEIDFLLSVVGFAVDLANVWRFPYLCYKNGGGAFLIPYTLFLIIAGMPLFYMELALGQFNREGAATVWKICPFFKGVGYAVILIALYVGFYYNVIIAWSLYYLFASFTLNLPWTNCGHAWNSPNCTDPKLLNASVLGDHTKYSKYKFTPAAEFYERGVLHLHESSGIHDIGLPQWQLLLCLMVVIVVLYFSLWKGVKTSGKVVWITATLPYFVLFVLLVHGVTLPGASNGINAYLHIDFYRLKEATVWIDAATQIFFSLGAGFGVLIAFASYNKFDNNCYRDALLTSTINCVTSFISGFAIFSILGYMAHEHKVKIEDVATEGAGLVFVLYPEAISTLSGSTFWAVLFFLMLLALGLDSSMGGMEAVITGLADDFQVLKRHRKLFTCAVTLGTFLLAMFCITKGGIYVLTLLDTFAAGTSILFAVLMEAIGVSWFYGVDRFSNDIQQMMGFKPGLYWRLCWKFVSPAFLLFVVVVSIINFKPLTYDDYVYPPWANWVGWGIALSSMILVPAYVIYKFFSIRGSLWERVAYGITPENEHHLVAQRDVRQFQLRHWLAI
Source text: as §1, §2
In Vitro Inhibition of ^3 H-noradrenaline (^3 H-NA) Uptake in Hippocampal Synaptosomes
as §3, with “Tissue preparation:” for “Tissue preparations:”, “indicated. Hippocampi” for “indicated. Corpi striati”, “buffer (2000” for “buffer (8000”, “MgSO4, 0.97” for “MgSO4, 1”
as §4, with “H-NA” for “H-DA”, “90” for “25”, “desipramine (1” for “benztropine (10”
The test value is given as IC50 (the concentration (μM) of the test substance which inhibits the specific binding of ^3 H-NA by 50%).

O=C1CCN2[C@H]3CC[C@@H]2[C@@H]1[C@@H](c1ccc(Cl)c(Cl)c1)C3 [(1S,2S,4S,7R)-2-(3,4-Dichlorophenyl)-8-azatricyclo[5.4.0.0^4,8]undecan-11-one]
IC50 [1]: 180 nM
IC50 [2]: 7.5 nM
IC50 [3]: 35 nM

OC1CCN2[C@H]3CC[C@@H]2[C@@H]1[C@@H](c1ccc(Cl)c(Cl)c1)C3 (stereo partly drawn) [(1S,2S,4S,7R)-2-(3,4-Dichlorophenyl)-8-azatricyclo[5.4.0.0^4,8]undecan-11-ol]
IC50 [1]: 75 nM
IC50 [2]: 2.8 nM
IC50 [3]: 4.1 nM

O=C1CN2[C@H]3CC[C@@H]2[C@@H]1[C@@H](c1ccc(Cl)c(Cl)c1)C3 [(1S,3S,4S,8R)-3-(3,4-Dichlorophenyl)-7-azatricyclo[5.3.0.0^4,8]decan-5-one]
IC50 [1]: 120 nM
IC50 [2]: 2.6 nM
IC50 [3]: 5.2 nM

COC1CN2[C@H]3CC[C@@H]2[C@@H]1[C@@H](c1ccc(Cl)c(Cl)c1)C3 (stereo partly drawn) [(1S,3S,4S,8R)-3-(3 ,4-Dichlorophenyl)-5-methoxy-7-azatricyclo[5.3.0.0^4,8]decane]
IC50 [1]: 22 nM
IC50 [2]: 0.1 nM
IC50 [3]: 1.4 nM

CC(=O)OC1CN2[C@H]3CC[C@@H]2[C@@H]1[C@@H](c1ccc(Cl)c(Cl)c1)C3 (stereo partly drawn) [(1S,3S,4S,8R)-3-(3,4-Dichlorophenyl)-7-azatricyclo[5.3.0.0^4,8]dec-5-yl acetate fumarate]
IC50 [1]: 210 nM
IC50 [2]: 7.5 nM
IC50 [3]: 6.1 nM

OC1CN2[C@H]3CC[C@@H]2[C@@H]1[C@@H](c1ccc(Cl)c(Cl)c1)C3 (stereo partly drawn) [(1S,3S,4S,8R)-3-(3,4-Dichlorophenyl)-7-azatricyclo[5.3.0.0^4,8]decan-5-ol]
IC50 [1]: 250 nM
IC50 [2]: 1.8 nM
IC50 [3]: 7.4 nM

CON=C1CCN2[C@H]3CC[C@@H]2[C@@H]1[C@@H](c1ccc(Cl)c(Cl)c1)C3 [(1S,2S,4S,7R)-2-(3,4-Dichlorophenyl)-8-azatricyclo[5.4.0.0^4,8]undecan-11-one O-methyl-oxime]
IC50 [1]: 12 nM
IC50 [2]: 3.3 nM
IC50 [3]: 2 nM

CON=C1CN2[C@H]3CC[C@@H]2[C@@H]1[C@@H](c1ccc(Cl)c(Cl)c1)C3 [(1S,3S,4S,8R)-3-(3,4-Dichlorophenyl)-7-azatricyclo[5.3.0.0^4,8]decan-5-one O-methyl-oxime]
IC50 [1]: 16 nM
IC50 [2]: 3.2 nM
IC50 [3]: 0.9 nM
